This passage reports IC50 results from patent US20200405696A1, “INHIBITORS OF INDOLEAMINE 2,3-DIOXYGENASE AND/OR TRYPTOPHAN 2,3-DIOXYGENASE” (IDORSIA PHARMACEUTICALS LTD, priority 2018, published 2020).

In test [1] the target is T1, Recombinant full-length human IDO1 (Homo sapiens, UniProt P14902).
T1 construct: Recombinant full-length human IDO1 with a N-terminal hexahistidine tag; hexahistidine (His6) (N); made in house; host or cells: E. coli
In words: IDO1 enzymatic assay (NFK quantified by LCMS). Type of test: biochemical. The conditions noted are these: 2 nM enzyme, 5 μM L-tryptophan, pH6.5, 30 minutes pre-incubation at RT; mean values when measured multiple times; read-out: hIDO activity (IC50 in nM). An outline of the steps: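 His-tagged human IDO1 (2 nM) in pH 6.5 phosphate buffer with ascorbate, methylene blue and catalase was preincubated with compound (10 μM–0.5 nM, 0.6% DMSO) for 30 min at RT. The reaction then ran with 5 μM L-Trp for 30 min. NFK was measured by LCMS against a d5-Trp standard, and IC50 was obtained by four-parameter fit.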

The target in test [2] is T2, Recombinant human TDO comprising amino acids 19-407 (Homo sapiens, UniProt P48775).
T2 construct: Recombinant human TDO comprising amino acids 19-407 with a N-terminal hexahistidine tag; hexahistidine (His6) (N); made in house; host or cells: E. coli
In words: TDO2 enzymatic assay (NFK quantified by LCMS). Type of test: biochemical. Particulars: 15 nM enzyme, 200 μM L-tryptophan, pH7, 30 minutes pre-incubation at RT; mean values when measured multiple times; read-out: hTDO activity (IC50 in nM). An outline of the steps:
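NFK formed over 30 min at RT from 200 μM L-tryptophan was measured by LCMS, normalized to d5-tryptophan, after compound (0.5 nM–10 μM, duplicates, 0.6% DMSO) was preincubated 30 min with 15 nM recombinant His-tagged TDO 19-407 in phosphate buffer pH 7. IC50 from four-parameter logistic fit; repeats averaged.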

T2 sequence (P48775 19-406 limits assumed): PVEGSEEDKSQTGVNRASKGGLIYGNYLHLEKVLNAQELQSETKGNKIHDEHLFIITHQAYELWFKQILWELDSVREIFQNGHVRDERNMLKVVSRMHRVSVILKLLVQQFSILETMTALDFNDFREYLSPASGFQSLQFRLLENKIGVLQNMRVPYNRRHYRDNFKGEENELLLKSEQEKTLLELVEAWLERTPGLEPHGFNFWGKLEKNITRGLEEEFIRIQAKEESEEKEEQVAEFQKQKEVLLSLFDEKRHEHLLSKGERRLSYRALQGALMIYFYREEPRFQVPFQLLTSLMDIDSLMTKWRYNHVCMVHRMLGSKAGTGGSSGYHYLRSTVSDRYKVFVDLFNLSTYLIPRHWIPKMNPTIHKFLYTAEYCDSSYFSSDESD
T1 sequence (P14902 whole entry): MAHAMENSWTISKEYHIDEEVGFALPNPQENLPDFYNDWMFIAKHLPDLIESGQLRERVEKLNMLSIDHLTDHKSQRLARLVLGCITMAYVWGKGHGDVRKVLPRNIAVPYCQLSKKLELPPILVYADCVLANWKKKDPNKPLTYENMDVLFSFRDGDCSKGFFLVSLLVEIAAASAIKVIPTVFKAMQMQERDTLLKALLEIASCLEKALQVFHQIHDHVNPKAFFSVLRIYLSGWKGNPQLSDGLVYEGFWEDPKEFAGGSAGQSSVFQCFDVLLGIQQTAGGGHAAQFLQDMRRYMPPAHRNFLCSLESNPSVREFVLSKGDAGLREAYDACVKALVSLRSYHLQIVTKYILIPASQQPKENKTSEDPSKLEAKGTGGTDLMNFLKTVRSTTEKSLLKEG

As usually defined, the IC50 is the point on the concentration scale where inhibition reaches its midpoint. Turning to `OC(c1cn(-c2ccc(OCC(F)(F)F)nc2)nn1)c1c(C2CC2)sc2cncn12` (racemic) [Example 78, rac-(2-Cyclopropyl-imidazo[5,1-b]thiazol-3-yl)-{1-[6-(2,2,2-trifluoro-ethoxy)-pyridin-3-yl]-1H-[1,2,3]triazol-4-yl}-methanol], the concentration for half-maximal inhibition (IC50) in test [1] was 17.4 nM; in test [2] it was over 10200 nM.

As to `CCc1sc2cncn2c1C(O)c1cn(-c2ccc(N)c(Cl)c2)nn1` (racemic) [Example 272, rac-[1-(4-Amino-3-chloro-phenyl)-1H-[1,2,3]triazol-4-yl]-(2-ethyl-imidazo[5,1-b]thiazol-3-yl)-methanol], the IC50 was determined as 4.44 nM in test [1] and 3840 nM in test [2].

On to `COC(=O)Nc1ccc(-n2cc(C(O)c3c(C)sc4cncn34)nn2)cc1` (racemic) [Example 58, rac-(4-{4-[Hydroxy-(2-methyl-imidazo[5,1-b]thiazol-3-yl)-methyl]-[1,2,3]triazol-1-yl}-phenyl)-carbamic Acid Methyl Ester], for which the half-inhibitory concentration (IC50) in test [1] was 69.1 nM; in test [2], 8050 nM.

With `OC(c1cn(-c2cccnc2)nn1)c1c(C2CC2)sc2cncn12` (racemic) [Example 15, rac-(2-Cyclopropyl-imidazo[5,1-b]thiazol-3-yl)-(1-pyridin-3-yl-1H-[1,2,3]triazol-4-yl)-methanol], the IC50 in test [1] is 95.8 nM; in test [2] it was over 10200 nM.

Turning to `C=C(C)c1sc2cncn2c1C(O)c1cn(-c2ccc(OCC3(F)COC3)c(Cl)c2)nn1` (racemic) [Example 299, rac-{1-[3-Chloro-4-(3-fluoro-oxetan-3-ylmethoxy)-phenyl]-1H-[1,2,3]triazol-4-yl}-(2-isopropenyl-imidazo[5,1-b]thiazol-3-yl)-methanol], the values for the half-inhibitory concentration (IC50) in test [1] and in test [2] were 34.8 nM and over 10200 nM, respectively.

Consider `CC(C)Oc1ccc(-n2cc(C(O)c3c(C4CC4)sc4cncn34)nn2)cn1` (racemic) [Example 82, rac-(2-Cyclopropyl-imidazo[5,1-b]thiazol-3-yl)-[1-(6-isopropoxy-pyridin-3-yl)-1H-[1,2,3]triazol-4-yl]-methanol], for which the IC50 in test [1] is 44.2 nM; in test [2], over 10200 nM.

Consider `CCc1sc2cncn2c1C(O)c1cn(-c2ccc3[nH]c(=O)[nH]c3c2)nn1` (racemic) [Example 112, rac-5-{4-[(2-Ethyl-imidazo[5,1-b]thiazol-3-yl)-hydroxy-methyl]-[1,2,3]triazol-1-yl}-1,3-dihydro-benzoimidazol-2-one], for which the IC50 in test [1] worked out at 45.6 nM; in test [2], 6220 nM.

Regarding `CCc1sc2cncn2c1C(O)c1cn(-c2ccc(NC(=O)c3ccccc3)cc2)nn1` (racemic) [Example 230, rac-N-(4-{4-[(2-Ethyl-imidazo[5,1-b]thiazol-3-yl)-hydroxy-methyl]-[1,2,3]triazol-1-yl}-phenyl)-benzamide], the IC50 in test [1] turned out to be 28.7 nM; in test [2] it was 2710 nM.

Take `OC(c1nc(-c2ccccc2)no1)c1c(C2CC2)sc2cncn12` (racemic) [Example 163, rac-(2-Cyclopropyl-imidazo[5,1-b]thiazol-3-yl)-(3-phenyl-[1,2,4]oxadiazol-5-yl)-methanol]: the IC50 in test [1] was 496 nM; in test [2] it was over 10200 nM.

In the case of `CCOc1ccc(-n2cc(C(O)c3c(C)sc4cncn34)nn2)cn1` (racemic) [Example 55, rac-[1-(6-Ethoxy-pyridin-3-yl)-1H-[1,2,3]triazol-4-yl]-(2-methyl-imidazo[5,1-b]thiazol-3-yl)-methanol], the IC50 in test [1] was 205 nM; in test [2], over 10200 nM.

As for `COc1ccc(-n2cc(C(O)c3c(C4CC4)sc4cncn34)nn2)cc1Cl` (racemic) [Example 289, rac-[1-(3-Chloro-4-methoxy-phenyl)-1H-[1,2,3]triazol-4-yl]-(2-cyclopropyl-imidazo[5,1-b]thiazol-3-yl)-methanol], the IC50 in test [1] was 7.56 nM; in test [2], over 10200 nM.

With `O=[N+]([O-])c1cc(-n2cc(C(O)c3c(C4CC4)sc4cncn34)nn2)ccc1O` (racemic) [Example 248, rac-4-{4-[(2-Cyclopropyl-imidazo[5,1-b]thiazol-3-yl)-hydroxy-methyl]-[1,2,3]triazol-1-yl}-2-nitro-phenol], the IC50 in test [1] is 2.6 nM; in test [2], 4710 nM.

For the compound `OC(c1cnn(-c2ccccc2)c1)c1c(C2CC2)sc2cncn12` (racemic) [Example 100, rac-(2-Cyclopropyl-imidazo[5,1-b]thiazol-3-yl)-(1-phenyl-1H-pyrazol-4-yl)-methanol], the IC50 was determined as 41.8 nM in test [1] and 3350 nM in test [2].

As to `CCc1sc2cncn2c1C(O)c1cn(-c2ccc(C(=O)N(C)C)cc2)nn1` (racemic) [Example 114, rac-4-{4-[(2-Ethyl-imidazo[5,1-b]thiazol-3-yl)-hydroxy-methyl]-[1,2,3]triazol-1-yl}-N,N-dimethyl-benzamide], the IC50 is 108 nM in test [1] and over 10200 nM in test [2].

For `CCc1sc2cncn2c1C(O)c1cn(-c2ccc(S(=O)(=O)N3CCCC3)cc2)nn1` (racemic) [Example 242, rac-(2-Ethyl-imidazo[5,1-b]thiazol-3-yl)-{1-[4-(pyrrolidine-1-sulfonyl)-phenyl]-1H-[1,2,3]triazol-4-yl}-methanol], the IC50 was 139 nM in test [1] and over 10200 nM in test [2].

Turning to `COc1ccc(-n2cc(C(O)c3c(C4CC4)sc4cncn34)nn2)c(F)c1Cl` (racemic) [Example 292, rac-[1-(3-Chloro-2-fluoro-4-methoxy-phenyl)-1H-[1,2,3]triazol-4-yl]-(2-cyclopropyl-imidazo[5,1-b]thiazol-3-yl)-methanol], the values for the IC50 in test [1] and in test [2] were 28.9 nM and over 10200 nM, respectively.

Take `N#Cc1cc(-n2cc(C(O)c3c(C4CC4)sc4cncn34)nn2)ccc1OC(F)(F)F` (racemic) [Example 199, rac-5-{4-[(2-Cyclopropyl-imidazo[5,1-b]thiazol-3-yl)-hydroxy-methyl]-[1,2,3]triazol-1-yl}-2-trifluoromethoxy-benzonitrile]: the figures for the IC50 in test [1] and in test [2] were 73.1 nM and over 10200 nM, respectively.

For `OC(c1cn(-c2ccccn2)nn1)c1c(C2CC2)sc2cncn12` (racemic) [Example 14, rac-(2-Cyclopropyl-imidazo[5,1-b]thiazol-3-yl)-(1-pyridin-2-yl-1H-[1,2,3]triazol-4-yl)-methanol], the IC50 was 79.6 nM in test [1] and over 10200 nM in test [2].

With `OCCCOc1ccc(-n2cc(C(O)c3c(-c4ccccc4)sc4cncn34)nn2)cc1Cl` (racemic) [Example 267, rac-3-(2-Chloro-4-{4-[hydroxy-(2-phenyl-imidazo[5,1-b]thiazol-3-yl)-methyl]-[1,2,3]triazol-1-yl}-phenoxy)-propan-1-ol], the IC50 in test [1] is 122 nM; in test [2], over 10200 nM.

With `Cc1sc2cncn2c1C(O)c1ccc(-c2ccccc2)s1` (racemic) [Example 154, rac-(2-Methyl-imidazo[5,1-b]thiazol-3-yl)-(5-phenyl-thiophen-2-yl)-methanol], the 50% inhibitory concentration (IC50) in test [1] is 366 nM; in test [2], 7270 nM.

As to `COc1cc(F)c(-n2nnc(C(O)c3c(C4CC4)sc4cncn34)c2C)cc1Cl` (racemic) [Example 333, rac-[1-(5-Chloro-2-fluoro-4-methoxy-phenyl)-5-methyl-1H-[1,2,3]triazol-4-yl]-(2-cyclopropyl-imidazo[5,1-b]thiazol-3-yl)-methanol], the IC50 was 1.46 nM in test [1] and over 10200 nM in test [2].

With `OCCCOc1ccc(-n2cc(C(O)c3c(C4CC4)sc4cncn34)nn2)cc1` (racemic) [Example 137, rac-3-(4-{4-[(2-Cyclopropyl-imidazo[5,1-b]thiazol-3-yl)-hydroxy-methyl]-[1,2,3]triazol-1-yl}-phenoxy)-propan-1-ol], the 50% inhibitory concentration (IC50) in test [1] is 11.1 nM; in test [2], over 10200 nM.

On to `OC(c1ccc(-c2ccncc2)s1)c1c(C2CC2)sc2cncn12` (racemic) [Example 168, rac-(2-Cyclopropyl-imidazo[5,1-b]thiazol-3-yl)-(5-pyridin-4-yl-thiophen-2-yl)-methanol], for which the concentration for half-maximal inhibition (IC50) in test [1] is 189 nM; in test [2] it was 1060 nM.

With `CCc1sc2cncn2c1C(O)c1cn(-c2ccc(NC(=O)C(C)C)cc2)nn1` (racemic) [Example 127, rac-N-(4-{4-[(2-Ethyl-imidazo[5,1-b]thiazol-3-yl)-hydroxy-methyl]-[1,2,3]triazol-1-yl}-phenyl)-isobutyramide], the results for the IC50 in test [1] and in test [2] were 8.21 nM and 7750 nM, respectively.

With `OCCOCCOc1ccc(-n2cc(C(O)c3c(C4CC4)sc4cncn34)nn2)cc1` (racemic) [Example 138, rac-2-[2-(4-{4-[(2-Cyclopropyl-imidazo[5,1-b]thiazol-3-yl)-hydroxy-methyl]-[1,2,3]triazol-1-yl}-phenoxy)-ethoxy]-ethanol], the IC50 in test [1] was 16.5 nM; in test [2], over 10200 nM.

For the compound `COc1cc(-n2cc(C(O)c3c(C4CC4)sc4cncn34)nn2)cnc1OC` (racemic) [Example 80, rac-(2-Cyclopropyl-imidazo[5,1-b]thiazol-3-yl)-[1-(5,6-dimethoxy-pyridin-3-yl)-1H-[1,2,3]triazol-4-yl]-methanol], the values for the half-maximal inhibitory concentration (IC50) in test [1] and in test [2] were 51.2 nM and over 10200 nM, respectively.
